ChEMBL document CHEMBL4007428, “Modulating the selectivity of matriptase-2 inhibitors with unnatural amino acids” (Eur J Med Chem, 2017)

biological target: T1, Transmembrane protease serine 6 (Homo sapiens, UniProt Q8IU80); assay: Inhibition of recombinant human C-terminal V5-His-tagged matriptase-2 expressed in Drosophila S2 cells using Boc-Gln-Ala-ArgAMC as substrate measured for 1200 mins by fluorescence assay; conditions: not given
T1 sequence (Q8IU80 whole entry): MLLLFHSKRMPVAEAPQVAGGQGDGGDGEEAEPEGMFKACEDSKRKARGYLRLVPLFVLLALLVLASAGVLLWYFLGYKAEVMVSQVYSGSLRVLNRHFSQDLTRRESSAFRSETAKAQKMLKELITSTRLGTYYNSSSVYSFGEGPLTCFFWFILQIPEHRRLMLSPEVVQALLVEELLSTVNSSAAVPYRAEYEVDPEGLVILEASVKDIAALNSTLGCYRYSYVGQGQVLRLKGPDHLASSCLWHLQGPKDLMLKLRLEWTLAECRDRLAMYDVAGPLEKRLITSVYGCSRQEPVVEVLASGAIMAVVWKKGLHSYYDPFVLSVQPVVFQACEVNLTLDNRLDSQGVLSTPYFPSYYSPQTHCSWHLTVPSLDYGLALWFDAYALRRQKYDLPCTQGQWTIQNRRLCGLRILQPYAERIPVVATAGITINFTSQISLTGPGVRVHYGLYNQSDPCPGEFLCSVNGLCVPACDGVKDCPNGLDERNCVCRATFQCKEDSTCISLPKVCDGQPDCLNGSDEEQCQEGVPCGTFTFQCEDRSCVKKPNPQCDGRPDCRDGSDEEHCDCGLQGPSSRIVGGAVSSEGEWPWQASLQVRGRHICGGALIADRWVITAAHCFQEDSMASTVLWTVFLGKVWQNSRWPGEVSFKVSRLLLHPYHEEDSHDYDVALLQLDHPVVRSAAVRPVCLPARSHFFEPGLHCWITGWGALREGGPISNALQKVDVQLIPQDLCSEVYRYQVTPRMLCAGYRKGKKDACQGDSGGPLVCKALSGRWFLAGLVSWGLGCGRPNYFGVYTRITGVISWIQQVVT

| Compound | Ki [nM] |
| --- | --- |
| CC(C)[C@H](NC(=O)C(Cc1ccc(O)cc1)NC(=O)CCc1ccc(O)cc1)C(=O)N[C@@H](CCCNC(=N)N)C(=O)c1nc2ccccc2s1 (single isomer, unassigned) | 1.2 to 2 |
| CC(C)[C@H](NC(=O)[C@H](Cc1cccc(Cl)c1)NC(=O)[C@@H](N)Cc1ccc(O)cc1)C(=O)N[C@@H](CCCNC(=N)N)C(=O)c1nc2ccccc2s1 | 5 |
| N=C(N)NCCC[C@H](NC(=O)[C@H](Cc1c[nH]cn1)NC(=O)C(Cc1ccc(O)cc1)NC(=O)[C@@H](N)Cc1ccc(O)cc1)C(=O)c1nc2ccccc2s1 (single isomer, unassigned) | 56 |
| CC(C)[C@H](NC(=O)[C@H](Cc1ccc(O)cc1)NC(=O)CC12CC3CC(CC(C3)C1)C2)C(=O)N[C@@H](CCCNC(=N)N)C(=O)c1nc2ccccc2s1 | 6 |
| N=C(N)NCCC[C@H](NC(=O)[C@@H](NC(=O)C(Cc1ccc(O)cc1)NC(=O)CCc1ccccc1)C(c1ccccc1)c1ccccc1)C(=O)c1nc2ccccc2s1 (single isomer, unassigned) | 340 |
| N=C(N)NCCC[C@H](NC(=O)[C@H](Cc1cscn1)NC(=O)C(Cc1ccc(O)cc1)NC(=O)[C@@H](N)Cc1ccc(O)cc1)C(=O)c1nc2ccccc2s1 (single isomer, unassigned) | 13 |

The remaining lines, values ahead:

| Ki [nM] | Compound |
| --- | --- |
| 2.3 | CCC[C@H](NC(=O)[C@H](CCc1ccccc1)NC(=O)CCc1ccccc1)C(=O)N[C@@H](CCCNC(=N)N)C(=O)c1nc2ccccc2s1 |
| 3.5 | CC(C)[C@H](NC(=O)[C@H](Cc1ccc(OCc2ccccc2)cc1)NC(=O)CCc1ccccc1)C(=O)N[C@@H](CCCNC(=N)N)C(=O)c1nc2ccccc2s1 |
| 2.1 | CC(C)[C@H](NC(=O)[C@H](CCc1ccccc1)NC(=O)CCc1ccccc1)C(=O)N[C@@H](CCCNC(=N)N)C(=O)c1nc2ccccc2s1 |
| 1.5 to 1.6 | CC[C@H](NC(=O)[C@H](CCc1ccccc1)NC(=O)CCc1ccccc1)C(=O)N[C@@H](CCCNC(=N)N)C(=O)c1nc2ccccc2s1 |
| 5 | CC[C@@H](C)[C@@H](NC(=O)[C@H](CCc1ccccc1)NC(=O)CCc1ccccc1)C(=O)N[C@@H](CCCNC(=N)N)C(=O)c1nc2ccccc2s1 |
| 5.3 | C[C@@H](O)[C@H](NC(=O)[C@H](CCc1ccccc1)NC(=O)CCc1ccccc1)C(=O)N[C@@H](CCCNC(=N)N)C(=O)c1nc2ccccc2s1 |
| 7 | CC(C)[C@@H](NC(=O)[C@H](CCc1ccccc1)NC(=O)CCc1ccccc1)C(=O)N[C@@H](CCCNC(=N)N)C(=O)c1nc2ccccc2s1 |
| 1.74 | CC(C)[C@H](NC(=O)C(Cc1ccc(O)cc1)NC(=O)CCc1ccccc1)C(=O)N[C@@H](CCCNC(=N)N)C(=O)c1nc2ccccc2s1 (single isomer, unassigned) |

system: not listed separately; assay: Stability in mouse plasma assessed as parent compound remaining after 24 hrs; type: ADME, cell-free; conditions: read-out: Stability

| Compound | remaining at 24 h [%] |
| --- | --- |
| CC(C)[C@H](NC(=O)C(Cc1ccc(O)cc1)NC(=O)CCc1ccc(O)cc1)C(=O)N[C@@H](CCCNC(=N)N)C(=O)c1nc2ccccc2s1 (single isomer, unassigned) | 40 |

biological target: T2, Transmembrane protease serine 6 (Homo sapiens) (UniProt Q8IU80); assay: Reversible inhibition of recombinant human C-terminal V5-His-tagged matriptase-2 expressed in Drosophila S2 cells assessed as dissociation half time using Boc-Gln-Ala-ArgAMC as substrate measured for 1200 mins by fluorescence assay; conditions: not given
T2 sequence (whole entry): T1 sequence (Q8IU80 whole entry)

| Compound | T1/2 [min] |
| --- | --- |
| CC(C)[C@H](NC(=O)C(Cc1ccc(O)cc1)NC(=O)CCc1ccc(O)cc1)C(=O)N[C@@H](CCCNC(=N)N)C(=O)c1nc2ccccc2s1 (single isomer, unassigned) | 24 |
| CC[C@H](NC(=O)[C@H](CCc1ccccc1)NC(=O)CCc1ccccc1)C(=O)N[C@@H](CCCNC(=N)N)C(=O)c1nc2ccccc2s1 | 18 |

species: Homo sapiens; assay: Selectivity ratio of Ki for recombinant human matriptase (596 to 855 residues) expressed in Escherichia coli to Ki for recombinant human C-terminal V5-His-tagged matriptase-2 expressed in Drosophila S2 cells; conditions: not given

| Compound | Ratio Ki |
| --- | --- |
| CCC[C@H](NC(=O)[C@H](CCc1ccccc1)NC(=O)CCc1ccccc1)C(=O)N[C@@H](CCCNC(=N)N)C(=O)c1nc2ccccc2s1 | 11 |
| CC(C)[C@H](NC(=O)[C@H](Cc1ccc(OCc2ccccc2)cc1)NC(=O)CCc1ccccc1)C(=O)N[C@@H](CCCNC(=N)N)C(=O)c1nc2ccccc2s1 | 20 |
| CC(C)[C@H](NC(=O)C(Cc1ccc(O)cc1)NC(=O)CCc1ccc(O)cc1)C(=O)N[C@@H](CCCNC(=N)N)C(=O)c1nc2ccccc2s1 (single isomer, unassigned) | 17 |
| CC(C)[C@H](NC(=O)[C@H](Cc1cccc(Cl)c1)NC(=O)[C@@H](N)Cc1ccc(O)cc1)C(=O)N[C@@H](CCCNC(=N)N)C(=O)c1nc2ccccc2s1 | 7 |
| CC(C)[C@H](NC(=O)[C@H](CCc1ccccc1)NC(=O)CCc1ccccc1)C(=O)N[C@@H](CCCNC(=N)N)C(=O)c1nc2ccccc2s1 | 31 |
| CC[C@H](NC(=O)[C@H](CCc1ccccc1)NC(=O)CCc1ccccc1)C(=O)N[C@@H](CCCNC(=N)N)C(=O)c1nc2ccccc2s1 | 13 |
| N=C(N)NCCC[C@H](NC(=O)[C@H](Cc1c[nH]cn1)NC(=O)C(Cc1ccc(O)cc1)NC(=O)[C@@H](N)Cc1ccc(O)cc1)C(=O)c1nc2ccccc2s1 (single isomer, unassigned) | 0.9 |
| CC(C)[C@H](NC(=O)[C@H](Cc1ccc(O)cc1)NC(=O)CC12CC3CC(CC(C3)C1)C2)C(=O)N[C@@H](CCCNC(=N)N)C(=O)c1nc2ccccc2s1 | 6 |
| CC[C@@H](C)[C@@H](NC(=O)[C@H](CCc1ccccc1)NC(=O)CCc1ccccc1)C(=O)N[C@@H](CCCNC(=N)N)C(=O)c1nc2ccccc2s1 | 30 |
| C[C@@H](O)[C@H](NC(=O)[C@H](CCc1ccccc1)NC(=O)CCc1ccccc1)C(=O)N[C@@H](CCCNC(=N)N)C(=O)c1nc2ccccc2s1 | 23 |
| CC(C)[C@@H](NC(=O)[C@H](CCc1ccccc1)NC(=O)CCc1ccccc1)C(=O)N[C@@H](CCCNC(=N)N)C(=O)c1nc2ccccc2s1 | 34 |
| N=C(N)NCCC[C@H](NC(=O)[C@@H](NC(=O)C(Cc1ccc(O)cc1)NC(=O)CCc1ccccc1)C(c1ccccc1)c1ccccc1)C(=O)c1nc2ccccc2s1 (single isomer, unassigned) | 4 |
| N=C(N)NCCC[C@H](NC(=O)[C@H](Cc1cscn1)NC(=O)C(Cc1ccc(O)cc1)NC(=O)[C@@H](N)Cc1ccc(O)cc1)C(=O)c1nc2ccccc2s1 (single isomer, unassigned) | 2 |
| CC(C)[C@H](NC(=O)C(Cc1ccc(O)cc1)NC(=O)CCc1ccccc1)C(=O)N[C@@H](CCCNC(=N)N)C(=O)c1nc2ccccc2s1 (single isomer, unassigned) | 25 |

biological target: T3, Suppressor of tumorigenicity 14 protein (Homo sapiens, UniProt Q9Y5Y6); conditions: not given
T3 sequence (Q9Y5Y6 whole entry): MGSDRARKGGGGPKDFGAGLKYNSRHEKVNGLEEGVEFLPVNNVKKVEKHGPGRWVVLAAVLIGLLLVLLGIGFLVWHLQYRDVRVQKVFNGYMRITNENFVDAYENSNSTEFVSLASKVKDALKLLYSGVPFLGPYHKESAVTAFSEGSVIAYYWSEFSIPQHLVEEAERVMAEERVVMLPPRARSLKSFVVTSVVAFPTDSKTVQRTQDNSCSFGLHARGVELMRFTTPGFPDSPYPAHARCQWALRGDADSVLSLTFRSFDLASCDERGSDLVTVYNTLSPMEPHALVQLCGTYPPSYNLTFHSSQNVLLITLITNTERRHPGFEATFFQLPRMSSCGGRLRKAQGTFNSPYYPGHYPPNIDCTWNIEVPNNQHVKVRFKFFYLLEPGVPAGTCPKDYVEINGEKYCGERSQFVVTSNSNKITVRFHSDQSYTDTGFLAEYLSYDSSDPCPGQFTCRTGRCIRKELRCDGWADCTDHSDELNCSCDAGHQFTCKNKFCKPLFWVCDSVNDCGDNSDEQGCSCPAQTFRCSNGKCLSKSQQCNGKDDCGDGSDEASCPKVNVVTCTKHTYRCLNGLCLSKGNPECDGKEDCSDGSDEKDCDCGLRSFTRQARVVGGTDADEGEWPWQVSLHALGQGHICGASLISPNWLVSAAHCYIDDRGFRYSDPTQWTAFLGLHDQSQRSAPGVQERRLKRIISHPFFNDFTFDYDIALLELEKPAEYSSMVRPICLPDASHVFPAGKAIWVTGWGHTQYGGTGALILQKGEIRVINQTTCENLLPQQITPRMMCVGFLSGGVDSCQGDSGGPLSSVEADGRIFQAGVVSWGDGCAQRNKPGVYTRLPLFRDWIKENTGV

| Compound | Ki [nM] |
| --- | --- |
| CC(C)[C@H](NC(=O)C(Cc1ccc(O)cc1)NC(=O)CCc1ccc(O)cc1)C(=O)N[C@@H](CCCNC(=N)N)C(=O)c1nc2ccccc2s1 (single isomer, unassigned) | 34 to 38 |
| CC(C)[C@H](NC(=O)[C@H](Cc1cccc(Cl)c1)NC(=O)[C@@H](N)Cc1ccc(O)cc1)C(=O)N[C@@H](CCCNC(=N)N)C(=O)c1nc2ccccc2s1 | 34 |
| N=C(N)NCCC[C@H](NC(=O)[C@H](Cc1c[nH]cn1)NC(=O)C(Cc1ccc(O)cc1)NC(=O)[C@@H](N)Cc1ccc(O)cc1)C(=O)c1nc2ccccc2s1 (single isomer, unassigned) | 48 |
| CC(C)[C@H](NC(=O)[C@H](Cc1ccc(O)cc1)NC(=O)CC12CC3CC(CC(C3)C1)C2)C(=O)N[C@@H](CCCNC(=N)N)C(=O)c1nc2ccccc2s1 | 39 |
| N=C(N)NCCC[C@H](NC(=O)[C@@H](NC(=O)C(Cc1ccc(O)cc1)NC(=O)CCc1ccccc1)C(c1ccccc1)c1ccccc1)C(=O)c1nc2ccccc2s1 (single isomer, unassigned) | 1380 |
| N=C(N)NCCC[C@H](NC(=O)[C@H](Cc1cscn1)NC(=O)C(Cc1ccc(O)cc1)NC(=O)[C@@H](N)Cc1ccc(O)cc1)C(=O)c1nc2ccccc2s1 (single isomer, unassigned) | 20 |

Other lines, results leading:

| Ki [nM] | Compound |
| --- | --- |
| 26 | CCC[C@H](NC(=O)[C@H](CCc1ccccc1)NC(=O)CCc1ccccc1)C(=O)N[C@@H](CCCNC(=N)N)C(=O)c1nc2ccccc2s1 |
| 71 | CC(C)[C@H](NC(=O)[C@H](Cc1ccc(OCc2ccccc2)cc1)NC(=O)CCc1ccccc1)C(=O)N[C@@H](CCCNC(=N)N)C(=O)c1nc2ccccc2s1 |
| 65 | CC(C)[C@H](NC(=O)[C@H](CCc1ccccc1)NC(=O)CCc1ccccc1)C(=O)N[C@@H](CCCNC(=N)N)C(=O)c1nc2ccccc2s1 |
| 20 to 21 | CC[C@H](NC(=O)[C@H](CCc1ccccc1)NC(=O)CCc1ccccc1)C(=O)N[C@@H](CCCNC(=N)N)C(=O)c1nc2ccccc2s1 |
| 150 | CC[C@@H](C)[C@@H](NC(=O)[C@H](CCc1ccccc1)NC(=O)CCc1ccccc1)C(=O)N[C@@H](CCCNC(=N)N)C(=O)c1nc2ccccc2s1 |
| 120 | C[C@@H](O)[C@H](NC(=O)[C@H](CCc1ccccc1)NC(=O)CCc1ccccc1)C(=O)N[C@@H](CCCNC(=N)N)C(=O)c1nc2ccccc2s1 |
| 240 | CC(C)[C@@H](NC(=O)[C@H](CCc1ccccc1)NC(=O)CCc1ccccc1)C(=O)N[C@@H](CCCNC(=N)N)C(=O)c1nc2ccccc2s1 |
| 43 | CC(C)[C@H](NC(=O)C(Cc1ccc(O)cc1)NC(=O)CCc1ccccc1)C(=O)N[C@@H](CCCNC(=N)N)C(=O)c1nc2ccccc2s1 (single isomer, unassigned) |
